Earlier results on 1 compound are cited in patent US12115179B2, “Pharmaceutical composition, methods for treating and uses thereof” (Boehringer Ingelheim International GmbH, priority 2009, dated 2024).

The conditions of this series: metformin on its own, in the diabetic.

Take `CN(C)C(=N)N=C(N)N` [Met, metformin]: the “average improvement in the HbA1c value” is recorded as 1.0-1.5%.
